Our source for the inhibition and IC50 values is ChEMBL document CHEMBL5230146, “Crystal Structures of Metallo-β-Lactamase (IMP-1) and Its D120E Mutant in Complexes with Citrate and the Inhibitory Effect of the Benzyl Group in Citrate Monobenzyl Ester” (J Med Chem, 2021).

The structures appear in SMILES notation. Activity calls are given as the source filed them. The calls are words filed in the database; no cut-off is given here.

In general, inhibition refers to the share of the control response that was lost under treatment. A word on the IC50: it is the concentration that gives 50% inhibition. A higher IC50 goes with weaker potency in that assay.

For experiment [1], the target named is Metallo-beta-lactamase type 2 (Serratia marcescens) (UniProt P52699). The experiment can be described thus: Inhibition of Serratia marcescens IMP-1 expressed in Escherichia coli BL21 (DE3) at 5 mM using cephalothin as substrate preincubated for 5 mins followed by substrate addition.
Sequence of Metallo-beta-lactamase type 2 (Serratia marcescens) (P52699 19-246 limits assumed): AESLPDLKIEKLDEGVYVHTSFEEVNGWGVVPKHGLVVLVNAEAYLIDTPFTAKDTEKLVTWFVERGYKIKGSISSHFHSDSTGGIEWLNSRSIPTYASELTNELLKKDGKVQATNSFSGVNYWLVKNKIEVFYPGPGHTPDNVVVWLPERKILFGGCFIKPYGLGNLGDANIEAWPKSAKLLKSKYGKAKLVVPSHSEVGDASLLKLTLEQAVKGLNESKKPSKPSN
Experiment [2] has the same target. The experiment can be described thus: Inhibition of Serratia marcescens IMP-1 expressed in Escherichia coli BL21 (DE3) at 5 mM using cephalothin as substrate preincubated for 5 mins followed by substrate addition relative to control.
The target in experiment [3] is Metallo-beta-lactamase type 2 (Serratia marcescens, UniProt P52699). The experiment can be described thus: Inhibition of Serratia marcescens IMP-1 expressed in Escherichia coli BL21 (DE3) using cephalothin as substrate preincubated for 5 mins followed by substrate addition relative to citrate.
Sequence of Metallo-beta-lactamase type 2 (P52699 whole entry): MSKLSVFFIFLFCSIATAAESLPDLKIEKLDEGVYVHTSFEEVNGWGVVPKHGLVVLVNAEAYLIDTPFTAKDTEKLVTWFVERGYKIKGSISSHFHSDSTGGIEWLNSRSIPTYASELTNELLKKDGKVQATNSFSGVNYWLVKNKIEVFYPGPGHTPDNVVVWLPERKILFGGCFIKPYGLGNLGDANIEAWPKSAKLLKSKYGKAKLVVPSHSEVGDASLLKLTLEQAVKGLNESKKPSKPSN

On to `O=C(O)CC(O)(CC(=O)O)C(=O)O`, for which, in experiment [1], the inhibition result was “inactive”.

In experiment [2], `O=C(O)CC(O)(CC(=O)OCc1ccccc1)C(=O)O` (stereo not drawn) came in with an inhibition of 30%. In addition, the IC50 in experiment [3] was above 5 mM.
